Where a name gives a salt, the structure may show the parent alone.
What was measured:
[1] = system: drug metabolism enzymes; assay: inhibition of drug metabolism enzymes; assay type: in vitro ADME; conditions: except CYP2C8 and CYP2C19
[2] = system: human A375 melanoma (B-RAF V600E mutation) xenografts; assay: xenograft efficacy study; assay type: in vivo, BALB/C nude mice; conditions: A375 xenografts in nude mice, oral
Description: Human cancer cells were inoculated subcutaneously in the right axilla region of BALB/C nude mice to generate tumor xenografts. On the day of implantation, the cell culture medium was replaced with fresh medium. Three hours later, the media was removed and the cells were collected and re-suspended in cold (4° C.) PBS prior to inoculation. The right axilla region of each mouse was cleaned with 70% ethanol prior to cell inoculation. Each animal was injected subcutaneously with desired cells in 200 μl of cell suspension in the right front flank via a 26-gauge needle. After implantation tumor volumes were measured twice weekly in two dimensions using a calliper. Tumor volume was calculated using the formula: V=0.5×(a×b^2) where a and b are the long and short diameters of the tumor, respectively.
For in vivo efficacy studies, when the average tumor size reaches 100˜200 mm^3, animals were assigned into desired number of groups with 6-10 mice per group using a stratified randomization procedure. The groups consisted of a control group (no drug treatment), and different dose levels of Crystalline Form A* of Compound 1 Sesqui-Maleate treatment groups (ranged from 1-20 mg/kg). All doses were based on free-base weight. Drugs were administered by oral gavage once (qd) or twice (bid) daily; dosing frequency depended on the individual case for tumor growth. Treatments were administered by oral gavage (p.o.) in a volume of 10 ml/kg body weight. Body weight was assessed immediately before dosing and the volume dosed was adjusted accordingly. Individual body weights and tumor volumes were determined twice weekly, with mice being monitored daily for clinical signs of toxicity for the duration of the study. Mice were euthanized using carbon dioxide once their tumor volume reached 2000 mm^3, the tumor was ulcerated, or body weight loss exceeded 20%. All group data was analyzed using the t test. If the p value was <0.05, it was considered to be statistically significant.
Tumor growth inhibition (TGI) was calculated using the following formula: […]

O=C1CCc2c(Oc3ccc4c(c3)[C@@H]3[C@H](O4)[C@H]3c3nc4ccc(C(F)(F)F)cc4[nH]3)ccnc2N1 [5-(((1R,1aS,6bR)-1-(6-(trifluoromethyl)-1H-benzo[d]imidazol-2-yl)-1a,6b-dihydro-1H-cyclopropa[b]benzofuran-5-yl)oxy)-3,4-dihydro-1,8-naphthyridin-2(1H)-one sesqui-maleate salt]
inhibitory activity on drug metabolism enzymes [1]: no inhibitory activity
antitumor activity [2]: marked antitumor activity

Reference: patent US10351559B2, “Maleate salts of a B-RAF kinase inhibitor, crystalline forms, methods of preparation, and uses therefore” (BeiGene, Ltd., priority 2015, dated 2019)
